From US20230310388A1, “Methods and Compositions for Treating Fungal Infections” (Neoculi Pty Ltd, priority 2020, published 2023)
Values joined by “and” are separate entries in the source; they are usually repeats but may differ in a detail not shown here. Equal values may be shown once. Read-outs that look alike come from different tables or passages of the source.

What was measured:
Assay type in all cases: cell-based
Candida albicans [1] = experiment: CLSI broth microdilution MIC (Example 5)
Method in brief: (§1)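 Broth microdilution per CLSI in RPMI 1640 with twofold compound dilutions, inoculum about 2×10^3 cells/mL. Plates incubated at 35° C for 24-48 hours. MIC determined per isolate in duplicate, with a third repeat when the two values differed.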

Cryptococcus neoformans = experiment: CLSI broth microdilution MIC (Example 5)
Method in brief: as §1

[2] = tested on: Candida albicans ATCC14053; experiment: Broth micro-dilution screen at 16 μg/mL and MIC (Example 9); conditions: for MIC: C. albicans ATCC14053, test range 0.25-64 μg/mL, duplicate; for Screen at 16 μg/mL: single concentration 16 μg/mL, Growth or No growth of C. albicans ATCC14053
Method: The antifungal activity of 201 NCL analogs against Candida albicans ATCC14053 in vitro was investigated. A broth micro-dilution method was used, according to CLSI guidelines as described. NCL analogs were dissolved in DMSO and originally screened at a single concentration of 16 μg/mL.

Malassezia pachydermatis = experiment: Checkerboard MIC/FICI of NCL812 and EDTA (Example 2); conditions: for MIC: Malassezia pachydermatis, read-out: MIC, compound alone; for MIC, combination: EDTA + NCL812 combination; for FICI: NCL812 with EDTA
Source text: There is no recommended CLSI standard for M. pachydermatis. In the literature there are a number of papers which have developed MIC methodology for Malassezia species isolated from both humans and animals (ie both lipophilic and non-lipophilic species). In all papers the methodology has been altered from the original CLSI protocols in order to overcome four main problem areas involved in testing this yeast. • 1) Finding a suitable growth medium for Malassezia, especially the lipophilic species. […] The method followed was originally developed by Eichenberg et al. (2003) (mSAB broth microdilution method). The mSAB method was devised to follow as closely as possible the CLSI guidelines whilst still allowing for the distinct biochemical and growth requirements of M. pachydermatis. […] Briefly, 150 μl of SDB+1% TW80 was added to each well of a 96-well microtiter plate, which was used as the checkerboard challenge plate. Next, a two-fold serial dilution of NCL 812 (robenidine) working solution was performed along the abscissa (column 3 to 12 only) (1/2 to 1/1024 dilution ratio). […] Experiments were performed in duplicate and repeated twice. […] The FICI values were interpreted as follows (Hamoud et al., 2015).

Candida albicans [3] = experiment: as above; conditions: isolate Candida albicans

Cc1ccc(/C=N/Nc2cc(N/N=C/c3ccc(C)cc3)nc(N)n2)cc1 [NCL195]
8 µg/mL: MIC (Candida albicans [1]; clinical isolate C. albicans 15-45171061) | MIC (Candida albicans [1]; clinical isolate C. albicans 15-91329871)
4 µg/mL: MIC (Candida albicans [1]; clinical isolate C. albicans 12-93301752 Azole Resistant) | MIC (Candida albicans [1]; clinical isolate C. albicans 16-24136919 Azole Resistant) | MIC (Candida albicans [1]; clinical isolate C. albicans 16-46177400) | MIC (Candida albicans [1]; clinical isolate C. albicans 16-90050810) | MIC (Candida albicans [1]; clinical isolate C. albicans 16-90054237) | MIC (Candida albicans [1]; clinical isolate C. albicans 18-144-00196)
1 µg/mL and 2 µg/mL: MIC [2]
No growth: Screen at 16 μg/mL [2]
>16 µg/mL: MIC (Candida albicans [1]; clinical isolate C. albicans 14-90045999 Azole Resistant) | MIC (Candida albicans [1]; clinical isolate C. albicans 18-148-08188 Azole Resistant)
2 µg/mL: MIC (Candida albicans [1]; C. albicans SA3) | MIC (Candida albicans [1]; Candida albicans ATCC 90028) | MIC (Cryptococcus neoformans; Cryptococcus neoformans SA1) | MIC (Cryptococcus neoformans; Cryptococcus neoformans SA2)
highly active: activity against one or more isolates of Cryptococcus neoformans and Candida albicans (Candida albicans [1]; summary in words)

N=C(N/N=C/c1ccc(Cl)cc1)N/N=C/c1ccc(Cl)cc1 [NCL812, robenidine, reference compound]
Synergy (FICI ≤ 0.5): interaction of NCL812 and EDTA (FICI interpretation) (Malassezia pachydermatis; each of the 11 isolates (10 Malassezia, 1 Candida albicans))
2 µg/mL: MIC (Malassezia pachydermatis; isolate ML19) | MIC (Malassezia pachydermatis; isolate ML21) | MIC (Malassezia pachydermatis; isolate ML36) | MIC (Malassezia pachydermatis; isolate ML41) | MIC (Malassezia pachydermatis; isolate ML42) | MIC (Malassezia pachydermatis; isolate ML69) | MIC, combination (Malassezia pachydermatis; isolate ML43) | MIC (Candida albicans [1]; Candida albicans, ATCC90028, Candida albicans ATCC 90028, read-out: MIC) | MIC (Candida albicans [1]; Candida albicans, clinical isolate C. albicans 12-93301752 Azole Resistant, read-out: MIC) | MIC (Candida albicans [1]; Candida albicans, clinical isolate C. albicans 14-90045999 Azole Resistant, read-out: MIC) | MIC (Candida albicans [1]; Candida albicans, clinical isolate C. albicans 15-91329871, read-out: MIC) | MIC (Candida albicans [1]; Candida albicans, clinical isolate C. albicans 16-24136919 Azole Resistant, read-out: MIC) | MIC (Candida albicans [1]; Candida albicans, clinical isolate C. albicans 16-90050810, read-out: MIC) | MIC (Candida albicans [1]; Candida albicans, clinical isolate C. albicans 16-90054237, read-out: MIC) | MIC (Candida albicans [1]; Candida albicans, C. albicans SA3, read-out: MIC) | MIC (Cryptococcus neoformans; Cryptococcus neoformans SA1, read-out: MIC) | MIC (Cryptococcus neoformans; Cryptococcus neoformans SA2)
highly active: activity against one or more isolates of Cryptococcus neoformans and Candida albicans (Candida albicans [1]; summary in words)
0.75: FICI (Malassezia pachydermatis; isolate ML41) | FICI (Candida albicans [3]; NCL812 with EDTA)
0.5 µg/mL: MIC, combination (Malassezia pachydermatis; isolate ML18) | MIC, combination (Malassezia pachydermatis; isolate ML20) | MIC, combination (Malassezia pachydermatis; isolate ML41) | MIC, combination (Malassezia pachydermatis; isolate ML44) | MIC (Candida albicans [1]; Candida albicans, clinical isolate C. albicans 18-144-00196, read-out: MIC) | MIC ([2]; Candida albicans, read-out: MIC)
1: FICI (Malassezia pachydermatis; isolate ML18) | FICI (Malassezia pachydermatis; isolate ML19) | FICI (Malassezia pachydermatis; isolate ML20) | FICI (Malassezia pachydermatis; isolate ML21) | FICI (Malassezia pachydermatis; isolate ML36) | FICI (Malassezia pachydermatis; isolate ML42) | FICI (Malassezia pachydermatis; isolate ML43) | FICI (Malassezia pachydermatis; isolate ML44) | FICI (Malassezia pachydermatis; isolate ML69)
active: activity against all tested isolates of Cryptococcus neoformans and Candida albicans (Candida albicans [1]; summary in words)
4 µg/mL: MIC (Malassezia pachydermatis; isolate ML43) | MIC (Candida albicans [3]; read-out: MIC, compound alone) | MIC (Candida albicans [1]; Candida albicans, clinical isolate C. albicans 16-46177400, read-out: MIC)
high activity: activity against Candida albicans at the low discriminating concentration ([2]; 16 μg/mL screen, summary in words)
No growth: Screen at 16 μg/mL [2]
1 µg/mL: MIC (Malassezia pachydermatis; isolate ML18) | MIC (Malassezia pachydermatis; isolate ML20) | MIC (Malassezia pachydermatis; isolate ML44) | MIC, combination (Malassezia pachydermatis; isolate ML19) | MIC, combination (Malassezia pachydermatis; isolate ML21) | MIC, combination (Malassezia pachydermatis; isolate ML36) | MIC, combination (Malassezia pachydermatis; isolate ML42) | MIC, combination (Malassezia pachydermatis; isolate ML69) | MIC, combination (Candida albicans [3]; EDTA + NCL812 combination) | MIC (Candida albicans [1]; Candida albicans, clinical isolate C. albicans 15-45171061, read-out: MIC) | MIC (Candida albicans [1]; Candida albicans, clinical isolate C. albicans 18-148-08188 Azole Resistant, read-out: MIC)
